Source: PubChem BioAssay (NCI)
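Cells were grown in 96-well plates and exposed to each compound for 48 hours at five concentrations; endpoints were interpolated linearly between bracketing concentrations, or set to the highest concentration if not reached. GI50 = concentration required for 50% inhibition of growth. TGI marks complete inhibition of growth.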

Tests used:
Experiment in all cases: NCI tumour cell line growth inhibition, 48 h
[1] = test system: DU-145 prostate
[2] = test system: MCF7 breast
[3] = test system: T-47D breast
[4] = test system: UO-31 renal
[5] = test system: TK-10 renal
[6] = test system: COLO 205 colon
[7] = test system: HT29 colon
[8] = test system: CCRF-CEM leukemia
[9] = test system: NCI-H522 lung
[10] = test system: UACC-62 melanoma
[11] = test system: SF-539 CNS
[12] = test system: LOX IMVI melanoma
[13] = test system: SNB-75 CNS
[14] = test system: HS 578T breast
[15] = test system: NCI/ADR-RES ovarian
[16] = test system: PC-3 prostate
[17] = test system: SK-MEL-5 melanoma
[18] = test system: KM12 colon
[19] = test system: SW-620 colon
[20] = test system: HCT-15 colon
[21] = test system: U251 CNS
[22] = test system: HOP-92 NSCLC
[23] = test system: NCI-H226 lung
[24] = test system: BT-549 breast
[25] = test system: RXF 393 renal
[26] = test system: K-562 leukemia
[27] = test system: SNB-19 CNS
[28] = test system: M14 melanoma
[29] = test system: SF-295 CNS
[30] = test system: SK-MEL-2 melanoma
[31] = test system: MDA-MB-468 breast
[32] = test system: HCT-116 colon
[33] = test system: A498 renal
[34] = test system: HOP-62 NSCLC
[35] = test system: MDA-MB-435
[36] = test system: NCI-H23 lung
[37] = test system: CAKI-1 renal
[38] = test system: IGROV1 ovarian
[39] = test system: MOLT-4 leukemia
[40] = test system: OVCAR-3 ovarian
[41] = test system: MALME-3M melanoma
[42] = test system: 786-0 renal
[43] = test system: SK-MEL-28 melanoma
[44] = test system: RPMI-8226 leukemia
[45] = test system: SK-OV-3 ovarian
[46] = test system: ACHN renal
[47] = test system: OVCAR-5 ovarian
[48] = test system: HL-60(TB) leukemia
[49] = test system: SF-268 CNS
[50] = test system: SR leukemia
[51] = test system: NCI-H460 lung
[52] = test system: HCC-2998 colon

COc1ccc2cc([C@H](C)C(=O)[Se]CCC#N)ccc2c1
GI50 [1]: 2.66 µM | TGI [1]: 8.51 µM | GI50 [2]: 2.22 µM | TGI [2]: 10 µM | GI50 [3]: 5.43 µM | TGI [3]: 28.2 µM | GI50 [4]: 1.44 µM | TGI [4]: 2.78 µM | GI50 [5]: 1.63 µM | TGI [5]: 3.09 µM | GI50 [6]: 5.81 µM | TGI [6]: 23.1 µM | GI50 [7]: 2.02 µM | TGI [7]: 4.82 µM | GI50 [8]: 3.06 µM | TGI [8]: 56.8 µM | GI50 [9]: 1.48 µM | TGI [9]: 2.92 µM | GI50 [10]: 2.52 µM | TGI [10]: 7.52 µM | GI50 [11]: 1.95 µM | TGI [11]: 3.75 µM | GI50 [12]: 1.89 µM | TGI [12]: 4.97 µM | GI50 [13]: 1.78 µM | TGI [13]: 3.59 µM | GI50 [14]: 2.07 µM | TGI [14]: 7.29 µM | GI50 [15]: 2 µM | TGI [15]: 5.21 µM | GI50 [16]: 2.7 µM | TGI [16]: 8.53 µM | GI50 [17]: 2.02 µM | TGI [17]: 4.07 µM | GI50 [18]: 5.63 µM | TGI [18]: 50.9 µM | GI50 [19]: 2.91 µM | TGI [19]: 7.97 µM | GI50 [20]: 2 µM | TGI [20]: 4.53 µM | GI50 [21]: 1.7 µM | TGI [21]: 3.26 µM | GI50 [22]: 1.76 µM | TGI [22]: 3.48 µM | GI50 [23]: 1.56 µM | TGI [23]: 3.63 µM | GI50 [24]: 1.61 µM | TGI [24]: 3.12 µM | GI50 [25]: 1.67 µM | TGI [25]: 3.22 µM | GI50 [26]: 3.78 µM | TGI [26]: 23.6 µM | GI50 [27]: 1.79 µM | TGI [27]: 3.47 µM | GI50 [28]: 1.48 µM | TGI [28]: 3.44 µM | GI50 [29]: 1.81 µM | TGI [29]: 3.55 µM | GI50 [30]: 1.9 µM | TGI [30]: 4.39 µM | GI50 [31]: 1.96 µM | TGI [31]: 4.41 µM | GI50 [32]: 1.79 µM | TGI [32]: 3.37 µM | GI50 [33]: 1.78 µM | TGI [33]: 3.27 µM | GI50 [34]: 2.16 µM | TGI [34]: 3.94 µM | GI50 [35]: 1.79 µM | TGI [35]: 3.73 µM | GI50 [36]: 2.71 µM | TGI [36]: 7.95 µM | GI50 [37]: 1.88 µM | TGI [37]: 3.32 µM | GI50 [38]: 2.23 µM | TGI [38]: 4.98 µM | GI50 [39]: 2.62 µM | TGI [39]: 13 µM | GI50 [40]: 2.39 µM | TGI [40]: 5.78 µM | GI50 [41]: 1.64 µM | TGI [41]: 3.39 µM | GI50 [42]: 2.12 µM | TGI [42]: 3.72 µM | GI50 [43]: 2.02 µM | TGI [43]: 4.8 µM | GI50 [44]: 2.86 µM | TGI [44]: 9.32 µM | GI50 [45]: 4.49 µM | TGI [45]: 7.42 µM | GI50 [46]: 2.42 µM | TGI [46]: 5.42 µM | GI50 [47]: 2.52 µM | TGI [47]: 6.29 µM | GI50 [48]: 1.38 µM | TGI [48]: 4.24 µM | GI50 [49]: 2.44 µM | TGI [49]: 5.11 µM | GI50 [50]: 2.13 µM | TGI [50]: 12.2 µM | GI50 [51]: 2.72 µM | TGI [51]: 12.1 µM | GI50 [52]: 7.06 µM | TGI [52]: 22.6 µM
